Legend:
Assay type in all cases: cell-based
[1] = tested on: HCV genotype 1B containing 5-2 cells; assay: plate-based RNA content assay; conditions: Hepatitis C virus; HCV genotype 1B 5-2 cells, plate-based RNA content assay (data not shown)
Method: The EC50 of Compound against HCV genotype 1B containing 5-2 cells was determined to be 0.7 nM in plate-based RNA content assays (data not shown). A dose escalation experiment in which HCV genotype 1B 5-2 cells were dosed QD over three days at 0.3×EC50, 1×EC50, 3×EC50 and 10×EC50 and a dose fractionation experiment in which cells were dosed QD, BID or TID to obtain a constant AUC of ˜16.8 nM were performed using the HulaCell system. Results of the reporter assays for the dose escalation experiment are shown in FIGS. 6A-B. The combined PK results of the dose escalation experiment area shown in FIG. 7.

[2] = tested on: HCV genotype 1B (5-2) replicon cell line; assay: HulaCell in vitro PK-PD PK driver experiments (dose escalation and dose fractionation; luciferase reporter and RT-PCR viral RNA); conditions: adjusted to free fraction, Day 3
Method: Three QD infusions of the HCV NS3/4 protease inhibitor, (1aR,5S,8S,10R,22aR)-N-[(1R,2S)-1-[(Cyclopropylsulfonamido)carbonyl]-2-ethenylcyclopropyl]-14-methoxy-5-(2-methylpropan-2-yl)-3,6-dioxo-1,1a,3,4,5,6,9,10,18,19,20,21,22,22a-tetradecahydro-8H-7,10-methanocyclopropa[18,19][1,10,3,6]dioxadiazacyclononadecino[11,12-b]quinoxaline-8-carboxamide (“Compound”; See U.S. Pat. No. 7,973,040) were tested in the Hula Cell using the in vitro PK-PD software program and PK was monitored by collecting samples at multiple time point during each infusion. In addition, microcarrier beads were also collected daily to measure changes in viral load by RT-PCR Taqman analysis of cell lysates.
A frozen vial of HCV genotype 1B replicon cells (5-2 cells which contain genotype 1B replicon and a Luciferase reporter) was thawed and seeded into one T-75 flask. At confluency, the flask was trypsinized and cells resuspended to 6×10^6 cells in 9.5 ml DMEM containing 10% FBS and 0.5 mg/ml G418 in a 50 ml LeviTube™. 0.5 ml of collagen-coated microcarrier bead slurry mixture (50% V/V) was added to the 9.5 ml of cells and attachment was performed using BioWiggler™ microcarrier loading program (RPM=60; 1 min mixing; 40 min settle (repeat 6x=4 hr total)). Continuous mixing at 60 rpm was performed overnight. The next morning, 30 ml of fresh media was added to the culture. The microcarriers and attached cells were allowed to settle before removing 30 ml of media with any unattached cells from the LeviTube™. Afterward, 30 ml of fresh media was added back to the LeviTube™ to make the final volume 40 ml. […]
PK/PD samples were collected on Day 0, Day 1, Day 2, and Day 3 directly from the 50 ml LeviTube™ at specified time points. […] Compound concentration in the PK samples was determined by Mass Spectroscopy analysis.
Samples for PD determination (viral load content by RT-PCR) were washed once with 1 ml PBS (w/out Mg^2+ and Ca^2+). […] Viral RNA content of the cells was determined by quantitative PCR. […]

[3] = tested on: HCV genotype 1B (5-2) replicon cell line; assay: BelloCell in vitro PK-PD PK driver experiments; conditions: adjusted to free fraction, Day 3
From the text: A 4-tube HulaCell system was validated by comparing the results for the Compound PK driver experiments, previously performed in the BelloCell® (data not shown), with the results obtained from dose escalation and dose fractionation studies performed using the HulaCell system.
Calculated PK Driver parameters from HulaCell experiments, compared to those determined in BelloCell experiments are shown in Table 1.
The Hula Cell was successfully used to determine the Maximum efficacy threshold values at Day 3 for Compound in the HCV genotype 1B (5-2) replicon cell line. The PK correlation curves were remarkably similar between the BelloCell® and Hula cell with the only noticeable differences being the prediction of the % T>EC50 and the AUC.

## C=C[C@@H]1C[C@]1(NC(=O)[C@@H]1C[C@@H]2CN1C(=O)[C@H](C(C)(C)C)NC(=O)O[C@@H]1C[C@H]1CCCCCc1nc3ccc(OC)cc3nc1O2)C(=O)NS(=O)(=O)C1CC1 [Compound, (1aR,5S,8S,10R,22aR)-N-[(1R,2S)-1-[(Cyclopropylsulfonamido)carbonyl]-2-ethenylcyclopropyl]-14-methoxy-5-(2-methylpropan-2-yl)-3,6-dioxo-1,1a,3,4,5,6,9,10,18,19,20,21,22,22a-tetradecahydro-8H-7,10-methanocyclopropa[18,19][1,10,3,6]dioxadiazacyclononadecino[11,12-b]quinoxaline-8-carboxamide]
[1]
  EC50: 0.7 nM
[2]
  Maximum Efficacy Threshold % T > EC50: ≥84%
  Maximum Efficacy Threshold AUC0-24: ≥23.7 nM·h
  Maximum Efficacy Threshold Cmin: ≥0.10 nM
[3]
  Maximum Efficacy Threshold % T > EC50: ≥50%
  Maximum Efficacy Threshold AUC0-24: ≥8.4 nM·h
  Maximum Efficacy Threshold Cmin: ≥0.11 nM

Source: patent US20180291325A1, “IN VITRO PHARMACOKINETIC-PHARMACODYNAMIC DEVICE” (Merck Sharp & Dohme Corp., priority 2015, published 2018)
